These results are taken from patent US8937091B2 (Japan Science and Technology Agency, priority 2009, dated 2015).

Experiment [1] concerns IICR (IP3 induced calcium release) in CHO cells. Put plainly: Assay of IICR (IP3 induced calcium release)-inhibiting action. It is filed as cell-based, Chinese hamster. The settings on record: Cricetulus griseus, CHO; for inhibition at 10 µM: test compound 10 μmol; for inhibition at 10 µM / inhibition at 30 µM / inhibition at 100 µM: CHO cells, 10 μM ATP, read-out: IICR level (percentage of inhibition); for inhibition at 30 µM: test compound 30 μmol; for inhibition at 100 µM: test compound 100 μmol. An outline of the steps:
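CHO cell medium replaced with calcium-containing BSS; compound added 1 min later, then 10 μM ATP after a further 2 min. Percent inhibition of the ATP-evoked rise in intracellular calcium determined at each compound concentration.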

For experiment [2], the system named is SOCE (store operated calcium entry) in CHO cells. Put plainly: Assay of SOCE (store operated calcium entry)-inhibiting action. Particulars: Cricetulus griseus, CHO; for inhibition at 10 µM: test compound 10 μmol; for inhibition at 10 µM / inhibition at 30 µM / inhibition at 100 µM: CHO cells, thapsigargin, read-out: SOCE level (percentage of inhibition); for inhibition at 30 µM: test compound 30 μmol; for inhibition at 100 µM: test compound 100 μmol. It is filed as cell-based, Chinese hamster. In a few lines: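 CHO cells in calcium-free BSS received compound, then 1 μM thapsigargin 2 min later to deplete stores; after 9 min, 2 mM calcium chloride (final) added. Percent inhibition of the rise in intracellular calcium determined at various compound concentrations.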

On to `Cc1nc(C)c(C(=O)CCNCCNCCO)s1` [Example 220, 2-(N-2-hydroxyaminoethyl)aminoethyl-5-(2,4-dimethylthiazolyl)ketone], for which, in experiment [1], the inhibition at 10 µM stood at 0%, the inhibition at 30 µM came to 40% and the inhibition at 100 µM came out at 40%. Moreover, in experiment [2], the inhibition at 10 µM came to 0%, the inhibition at 30 µM turned out to be 0% and the inhibition at 100 µM was found to be 0%.
As for `O=C(CCN1CCCCC1CO)c1ccc(Br)s1` (stereo not shown) [Example 350], in experiment [1], the inhibition at 10 µM is 60%, the inhibition at 30 µM came to 50% and the inhibition at 100 µM turned out to be 70%. Besides, in experiment [2], the inhibition at 10 µM is 10%, the inhibition at 30 µM was 2% and the inhibition at 100 µM amounted to 3%.
For the compound `CCCCN(CCO)CCC(=O)c1ccc2c(Cl)cccc2c1` [Example 91, 2-(N-2-hydroxyethylbutyl)aminoethyl-5-chloro-2-naphthylketone], in experiment [1], the inhibition at 10 µM came to 20%, the inhibition at 30 µM was 90% and the inhibition at 100 µM is 100%. In experiment [2], the inhibition at 10 µM was 0%, the inhibition at 30 µM was found to be 10% and the inhibition at 100 µM was 90%.
As for `CC(=O)CCN(CCO)C(C)C` [Example 197, 2-(N-hydroxyethylisopropyl)aminoethylmethylketone], in experiment [1], the inhibition at 10 µM stood at 0%, the inhibition at 30 µM was 0% and the inhibition at 100 µM stood at 0%. In experiment [2], the inhibition at 10 µM amounted to 0%, the inhibition at 30 µM worked out at 0% and the inhibition at 100 µM amounted to 0%.
`CC(C)N(CCC(=O)c1ccccc1)Cc1ccccc1` [Example 69, 2-(isopropylbenzyl)aminoethylphenylketone]: in experiment [1], the inhibition at 10 µM came to 20%, the inhibition at 30 µM was 20% and the inhibition at 100 µM was determined as 90%. In addition, in experiment [2], the inhibition at 10 µM turned out to be 0%, the inhibition at 30 µM was found to be 10% and the inhibition at 100 µM was found to be 20%.
As to `CC(C)N(CCC(=O)c1ccc(I)s1)Cc1ccccc1` [Example 390, 2-(N-isopropyl-N-benzyl)aminoethyl-5-iodo-2-thienylketone], in experiment [1], the inhibition at 10 µM was 0%, the inhibition at 30 µM came out at 0% and the inhibition at 100 µM was 70%. In experiment [2], the inhibition at 10 µM is 20%, the inhibition at 30 µM stood at 40% and the inhibition at 100 µM turned out to be 50%.
For `NCCCNCCCCNCCC(=O)c1ccc2ccccc2c1` [Example 119, 2-(N-aminopropylaminobutyl)aminoethyl-2-naphthylketone], in experiment [1], the inhibition at 10 µM was determined as 0%, the inhibition at 30 µM worked out at 0% and the inhibition at 100 µM turned out to be 0%. In experiment [2], the inhibition at 10 µM is 0%, the inhibition at 30 µM was 0% and the inhibition at 100 µM was 0%.
`CC(C)N(CCC(=O)c1cccnc1)Cc1ccccc1` [Example 106, 2-(N-isopropylbenzyl)aminoethyl-3-pyridylketone]: in experiment [1], the inhibition at 10 µM came to 90%, the inhibition at 30 µM amounted to 90% and the inhibition at 100 µM is 100%. For the same compound, the IC50 in experiment [1] (Table 1) was less than 10 µM. In addition, in experiment [2], the inhibition at 10 µM was found to be 0%, the inhibition at 30 µM stood at 0% and the inhibition at 100 µM came out at 0%. For the same compound, the 50% inhibitory concentration (IC50) in experiment [2] (Table 1) was greater than 100 µM.
With `Cc1ccc(C(=O)CCN(Cc2ccccc2)C(C)(C)C)o1` [Example 137, 2-(N-benzyl-t-butyl)aminoethyl-5-methyl-2-furylketone], in experiment [1], the inhibition at 10 µM worked out at 40%, the inhibition at 30 µM was 50% and the inhibition at 100 µM worked out at 50%. In experiment [2], the inhibition at 10 µM is 0%, the inhibition at 30 µM worked out at 0% and the inhibition at 100 µM is 0%.
For `CC(CN(Cc1ccccc1)C(C)C)C(=O)c1ccccc1F` (stereo not shown) [Example 182, 1-methyl-2-(N-benzylisopropyl)aminoethyl-2-fluorophenylketone], in experiment [1], the inhibition at 10 µM was found to be 0%, the inhibition at 30 µM is 0% and the inhibition at 100 µM came to 50%. In addition, in experiment [2], the inhibition at 10 µM was found to be 10%, the inhibition at 30 µM amounted to 50% and the inhibition at 100 µM is 80%.
Take `CC(CN(CCO)C(C)C)C(=O)c1ccccc1F` (stereo not shown) [Example 181, 1-methyl-2-(N-hydroxyethylisopropyl)aminoethyl-2-fluorophenylketone]: in experiment [1], the inhibition at 10 µM turned out to be 0%, the inhibition at 30 µM is 10% and the inhibition at 100 µM is 20%. For the same compound, in experiment [2], the inhibition at 10 µM was 20%, the inhibition at 30 µM was 40% and the inhibition at 100 µM is 80%.
As for `C=CCC(=O)c1ccc2ccccc2c1` [Example 92, Allyl-2-naphthylketone], in experiment [1], the inhibition at 10 µM was determined as 0%, the inhibition at 30 µM was 0% and the inhibition at 100 µM was 30%. Also, in experiment [2], the inhibition at 10 µM amounted to 0%, the inhibition at 30 µM was 0% and the inhibition at 100 µM came to 0%.
As for `Cc1csc(C(=O)CCN(CCO)Cc2ccccc2)c1` [Example 323, 2-(N-benzylhydroxyethyl)aminoethyl-4-methyl-2-thienylketone], in experiment [1], the inhibition at 10 µM stood at 30%, the inhibition at 30 µM worked out at 50% and the inhibition at 100 µM is 30%. In experiment [2], the inhibition at 10 µM amounted to 0%, the inhibition at 30 µM stood at 0% and the inhibition at 100 µM was 30%.
Regarding `CCCCN(CCO)CCC(=O)c1ccc(Oc2ccccc2)cc1` [Example 114, 2-(N-hydroxyethylbutyl)aminoethyl-4-phenoxyphenylketone], in experiment [1], the inhibition at 10 µM was 70%, the inhibition at 30 µM came to 100% and the inhibition at 100 µM turned out to be 30%. Moreover, in experiment [2], the inhibition at 10 µM amounted to 0%, the inhibition at 30 µM amounted to 10% and the inhibition at 100 µM was determined as 40%.
On to `O=C(CCN(CCO)Cc1ccccc1)c1ccc[nH]1` [Example 173, 2-(N-benzylhydroxyethyl)aminoethyl-2-pyrrolylketone], for which, in experiment [1], the inhibition at 10 µM was determined as 0%, the inhibition at 30 µM was determined as 50% and the inhibition at 100 µM amounted to 80%. Besides, in experiment [2], the inhibition at 10 µM was found to be 0%, the inhibition at 30 µM was 0% and the inhibition at 100 µM is 0%.
Turning to `O=C(CCN(CCO)Cc1ccccc1)c1ccco1` [Example 124, 2-(N-hydroxyethylbenzyl)aminoethyl-2-furylketone], in experiment [1], the inhibition at 10 µM turned out to be 20%, the inhibition at 30 µM amounted to 20% and the inhibition at 100 µM came to 70%. Moreover, in experiment [2], the inhibition at 10 µM was determined as 0%, the inhibition at 30 µM was 0% and the inhibition at 100 µM worked out at 0%.
On to `CC(C)(C)N(CCO)CCC(=O)c1ccco1` [Example 123, 2-(N-t-butylhydroxyethyl)aminoethyl-2-furylketone], for which, in experiment [1], the inhibition at 10 µM came out at 20%, the inhibition at 30 µM stood at 20% and the inhibition at 100 µM is 70%. Moreover, in experiment [2], the inhibition at 10 µM came to 0%, the inhibition at 30 µM worked out at 10% and the inhibition at 100 µM is 20%.
Turning to `Cn1cccc1C(=O)CCN(Cc1ccccc1)C(C)(C)C` [Example 165, 2-(N-benzyl-t-butyl)aminoethyl-2-(N-methylpyrrolyl)ketone], in experiment [1], the inhibition at 10 µM was determined as 0%, the inhibition at 30 µM worked out at 0% and the inhibition at 100 µM worked out at 0%. In experiment [2], the inhibition at 10 µM is 0%, the inhibition at 30 µM is 0% and the inhibition at 100 µM worked out at 0%.
Take `CC(C)(C)N(CCC(=O)c1ccc(Cl)s1)Cc1ccccc1` [Example 280, 2-(N-t-butylbenzyl)aminoethyl-5-chloro-2-thienylketone]: in experiment [1], the inhibition at 10 µM amounted to 50%, the inhibition at 30 µM turned out to be 60% and the inhibition at 100 µM was 70%. In experiment [2], the inhibition at 30 µM worked out at 0% and the inhibition at 100 µM was 30%.
As to `CCCCN(CCC(=O)c1ccc(Br)cc1)Cc1ccccc1` [Example 375, 2-(N-butyl-N-benzyl)aminoethyl-4-bromophenylketone], in experiment [1], the inhibition at 10 µM was 0%, the inhibition at 30 µM amounted to 33% and the inhibition at 100 µM amounted to 0%. Further, in experiment [2], the inhibition at 10 µM was determined as 4%, the inhibition at 30 µM worked out at 0% and the inhibition at 100 µM is 40%.
Consider `CCCCN(CCO)CCC(=O)c1ccc(C)o1` [Example 255, 2-(N-2-hydroxyethylbutyl)aminoethyl-5-methyl-2-furylketone], for which, in experiment [1], the inhibition at 10 µM amounted to 0%, the inhibition at 30 µM was 30% and the inhibition at 100 µM came to 50%. Further, in experiment [2], the inhibition at 10 µM came out at 0%, the inhibition at 30 µM was found to be 0% and the inhibition at 100 µM is 0%.
Regarding `CN(CCC(=O)c1cccc2ccccc12)Cc1ccccc1` [Example 74, 2-(N-methylbenzyl)aminoethyl-1-naphthylketone], in experiment [1], the inhibition at 10 µM was 30%, the inhibition at 30 µM stood at 50% and the inhibition at 100 µM is 70%. Moreover, in experiment [2], the inhibition at 10 µM was determined as 0%, the inhibition at 30 µM was determined as 10% and the inhibition at 100 µM turned out to be 30%.

A word on the inhibition: it is how much of the control response was suppressed. For orientation: IC50 means the concentration that inhibits the measured activity by half.
